In patent US20240254121A1, “ALKYLAMIDE SUBSTITUTED, ANNULATED IMIDAZOLES AND USE THEREOF AS INSECTICIDES” (Bayer Aktiengesellschaft, priority 2021, published 2024):

What was measured:
Type in all cases: in vivo
[1] = test system: cattle tick larvae (Rhipicephalus microplus); test: Rhipicephalus (Boophilus) microplus in-vitro contact test, larval cattle tick (strain Parkhurst, resistant against synthetic pyrethroids); conditions: after 48 hours, read-out: efficacy (larvae dead or moribund); for pest or weed control at 1 µg/cm2, 100 g/ha: 1 μg/cm^2 (=100 g/ha); for pest or weed control at 5 µg/cm2, 500 g/ha: 5 μg/cm^2 (=500 g/ha)
Procedure: Rhipicephalus (Boophilus) Microplus—In-Vitro Contact Tests Larval Cattle Tick (Strain Parkhurst, Resistant Against Synthetic Pyrethroids)
9 mg compound is solved in 1 mL acetone and diluted with acetone to the desired concentration. 250 μL of the test solution is filled in 25 mL glass test tubes and homogeneously distributed on the inner walls by rotation and tilting on a shaking device (2 h at 30 rpm). With a compound concentration of 900 ppm, an inner surface of 44.7 cm^2 and a homogeneous distribution, a dose of 5 μg/cm^2 is achieved.
After the solvent has evaporated, each test tube is filled with 20-50 cattle tick larvae (Rhipicephalus microplus), closed with a perforated lid and incubated in a horizontal position at 85% relative humidity and 27° C. in an incubator. After 48 hours efficacy is determined. The larvae are patted on the ground of the tubes and negative geotactic behavior is recorded.
An efficacy of 100% means all larvae are dead or moribund; 0% means no larvae are dead or moribund.

[2] = test system: adult engorged female ticks (Rhipicephalus microplus); test: Rhipicephalus (Boophilus) microplus injection test; conditions: 4 μg/tick, egg deposition after 7 days
Procedure: Rhipicephalus (Boophilus) Microplus—Injection Test
• Solvent: Dimethyl Sulfoxide
To produce a suitable preparation of active compound, 10 mg of active compound are dissolved in 0.5 mL solvent, and the concentrate is diluted with solvent to the desired concentration.
Five adult engorged female ticks (Rhipicephalus microplus) are injected with 1 μL compound solution into the abdomen. The ticks are transferred into replica plates and incubated in a climate chamber.
After 7 days egg deposition of fertile eggs is monitored. Eggs where fertility is not visible are stored in a climate chamber till hatching after about 42 days. An efficacy of 100% means all eggs are infertile; 0% means all eggs are fertile.

[3] = test system: adult unfed cat fleas (Ctenocephalides felis); test: Ctenocephalides felis oral test; conditions: 48 h, 100 ppm in citrated cattle blood, after 2 days
Procedure: Ctenocephalides felis—Oral Test • Solvent: Dimethyl Sulfoxide
To produce a suitable preparation of active compound, 10 mg of active compound are dissolved in 0.5 mL solvent, and the concentrate is diluted with citrated cattle blood to the desired concentration.
Approximately 20 adult unfed cat fleas (Ctenocephalides felis) are placed in a flea chamber whose top and bottom is covered with gauze. A chamber whose bottom is sealed with parafilm, is filled with the blood-compound solution and placed on top of the flea chamber, so that the fleas can suck the blood. The blood chamber is heated to 37° C. whereas the flea chamber is kept at room temperature.
After 2 days mortality in % is determined. 100% means all the fleas have been killed; 0% means none of the fleas have been killed.

[4] = test system: larvae of the banded cucumber beetle (Diabrotica balteata); test: Diabrotica balteata spray test; conditions: 168 h, 100 g/ha (=32 μg/well), wheat seeds, after 7 days, read-out: efficacy (seedling growth)
Procedure: Diabrotica Balteata—Spray Test
• Solvent: 78.0 Parts by Weight of Acetone • 1.5 parts by weight of dimethylformamide • Emulsifier: Alkylarylpolyglycol Ether
(§1) To produce a suitable preparation of active compound, 1 part by weight of active compound is mixed with the stated amount of solvent, and the concentrate is diluted with water, containing an emulsifier concentration of 1000 ppm, to the desired concentration. Further test concentrations are prepared by dilution with emulsifier containing water.
Soaked wheat seeds (Triticum aestivum) are placed in a multiple well plate filled with agar and some water and are incubated for 1 day to germinate (5 seeds per well). The germinated wheat seeds are sprayed with a test solution containing the desired concentration of the active ingredient. Afterwards each unit is infected with 10-20 larvae of the banded cucumber beetle (Diabrotica balteata).
After 7 days efficacy in % is determined. 100% means all the seedlings have grown up like in the untreated, uninfected control; 0% means none of the seedlings have grown.

[5] = test system: brown planthopper (Nilaparvata lugens); test: Nilaparvata lugens spray test; conditions: 96 h, rice plants, after 4 days
Procedure: Nilaparvata lugens—Spray Test • Solvent: 78.0 parts by weight of acetone • 1.5 parts by weight of dimethylformamide • Emulsifier: alkylarylpolyglycol ether
as §1, with “solvents” for “solvent,”, “and” for “and the concentrate”
Rice plants (Oryza sativa) are sprayed with a preparation of the active ingredient of the desired concentration and the plants are infested with the brown planthopper (Nilaparvata lugens).
After 4 days mortality in % is determined. 100% means all planthoppers have been killed and 0% means none of the planthoppers have been killed.

[6] = test system: fall armyworm larvae (Spodoptera frugiperda); test: Spodoptera frugiperda spray test; conditions: 168 h, maize leaf sections, after 7 days
Procedure: Spodoptera frugiperda—Spray Test • Solvent: 78.0 parts by weight acetone • 1.5 parts by weight dimethylformamide • Emulsifier: alkylarylpolyglycol ether
as §1, with “solvents” for “solvent,”, “and” for “and the concentrate”
Maize (Zea mays) leaf sections are sprayed with a preparation of the active ingredient of the desired concentration. Once dry, the leaf sections are infested with fall armyworm larvae (Spodoptera frugiperda).
After 7 days mortality in % is determined. 100% means all caterpillars have been killed and 0% means none of the caterpillars have been killed.

[7] = test system: adult mosquitoes Aedes aegypti strain MONHEIM; test: Aedes aegypti test (AEDSAE surface treatment & contact assay); conditions: 24 hours after contact, read-out: efficacy (mortality); for mortality at 20 mg/m2: surface concentration 20 mg/m^2, 30 minutes exposure; for mortality at 4 mg/m2: surface concentration 4 mg/m^2, 30 minutes exposure
Procedure: Aedes aegypti Test (AEDSAE Surface Treatment & Contact Assay) • Solvent: Aceton+2000 ppm rapeseed oil methyl ester (RME)
(§2) In order to produce a sufficient, active ingredient containing solution it is necessary to solve the test compound in the solvent-mix (acetone at 2 mg/ml/RME 2000 ppm). This solution is pipetted onto a glazed tile and after evaporation of the acetone, adult mosquitoes of the species Aedes aegypti strain MONHEIM are placed onto the dried surface. The exposure time is 30 minutes. Mortality in percent (%) is determined 24 hours after contact of the insects to the treated surface. 100% mortality means that all tested insects are dead, whereas 0% means that no insect died.

[8] = test system: adult flies Musca domestica strain WHO-N; test: Musca domestica test (MUSCDO surface treatment & contact assay); conditions: 24 hours after contact, read-out: efficacy (mortality); for mortality at 20 mg/m2: surface concentration 20 mg/m^2, 30 minutes exposure
Procedure: Musca domestica Test (MUSCDO Surface Treatment & Contact Assay) • Solvent: Aceton+2000 ppm rapeseed oil methyl ester (RME)
as §2, with “flies” for “mosquitoes”, “Musca domestica” for “Aedes aegypti”, “WHO-N” for “MONHEIM”

[9] = test system: green peach aphid (Myzus persicae); test: Myzus persicae spray test; conditions: foliar, 120 h, 100 g/ha, Chinese cabbage leaf disks, after 5 days
Procedure: Myzus persicae—Spray Test • Solvent: 78.0 parts by weight acetone • 1.5 parts by weight dimethylformamide • Emulsifier: alkylarylpolyglycol ether
as §1, with “solvents” for “solvent,”, “and” for “and the concentrate”
Chinese cabbage (Brassica pekinensis) leaf disks infected with all instars of the green peach aphid (Myzus persicae), are sprayed with a preparation of the active ingredient of the desired concentration.
(§3) After 5 days mortality in % is determined. 100% means all aphids have been killed and 0% means none of the aphids have been killed.

[10] = test system: larvae of the southern green stink bug (Nezara viridula); test: Nezara viridula spray test; conditions: 96 h, barley plants, after 4 days
Procedure: Nezara viridula—Spray Test • Solvent: 78.0 parts by weight of acetone • 1.5 parts by weight of dimethylformamide • Emulsifier: alkylarylpolyglycol ether
as §1
Barley plants (Hordeum vulgare) are sprayed with a test solution containing the desired concentration of the active ingredient and are infested with larvae of the southern green stink bug (Nezara viridula).
After 4 days mortality in % is determined. 100% means all the stink bugs have been killed; 0% means none of the stink bugs have been killed.

[11] = test system: adult mosquitoes Culex quinquefasciatus strain P00; test: Culex quinquefasciatus test (CULXFA surface treatment & contact assay); conditions: 24 hours after contact, read-out: efficacy (mortality)
Procedure: Culex quinquefasciatus Test (CULXFA Surface Treatment & Contact Assay) • Solvent: Aceton+2000 ppm rapeseed oil methyl ester (RME)
as §2, with “2,000” for “2000”, “Culex quinquefasciatus” for “Aedes aegypti”, “P00” for “MONHEIM”

[12] = test system: southern root-knot nematode (Meloidogyne incognita); test: Meloidogyne incognita test; conditions: 20 ppm, lettuce, after 14 days
Procedure: Meloidogyne Incognita—Test
• Solvent: 125.0 parts by weight of acetone
(§4) To produce a suitable preparation of active compound, 1 part by weight of active compound is mixed with the stated amount of solvent, and the concentrate is diluted with water to the desired concentration.
Vessels are filled with sand, a solution of the active ingredient, a suspension containing eggs and larvae of the southern root-knot nematode (Meloidogyne incognita) and lettuce seeds. The lettuce seeds germinate and the seedlings grow. Galls develop in the roots.
After 14 days the nematicidal effect in percent is determined by the formation of galls. 100% means no galls were found and 0% means the number of galls found on the roots of the treated plants was equal to that in untreated control plants.

[13] = test system: cotton aphid (Aphis gossypii); test: Aphis gossypii oral test; conditions: 120 h, after 5 days
Procedure: Aphis gossypii—Oral Test • Solvent: 100 Parts by Weight Acetone
as §4
(§5) 50 μL compound solution is filled in microtiter plates and 150 μL IPL41 insect medium (33%+15% sugar) is added to obtain a total volume of 200 μL per well. Afterwards the plates are sealed with parafilm through which a mixed population of the cotton aphid (Aphis gossypii) can suck on the compound preparation.
as §3

[14] = test system: green peach aphid (Myzus persicae); test: Myzus persicae oral test; conditions: 120 h, after 5 days
Procedure: Myzus persicae—Oral Test • Solvent: 100 parts by weight acetone
as §4
as §5, with “green peach” for “cotton”, “(Myzus persicae)” for “(Aphis gossypii)”
as §3

[15] = surface concentration 4 mg/m^2, 30 minutes exposure

SMILES | pest or weed control at 1 µg/cm2, 100 g/ha [1] [%] | pest or weed control at 5 µg/cm2, 500 g/ha [1] [%] | efficacy (infertile eggs) [2] [%] | mortality at 100 ppm [3] [%] | pest or weed control at 32 µg/disc, 100 g/ha [4] [%] | mortality at 500 g/ha [5] [%] | mortality at 100 g/ha [6] [%] | mortality at 20 mg/m2 [7] [%] | mortality at 20 mg/m2 [8] [%] | mortality at 100 g/ha [9] [%] | mortality at 500 g/ha [10] [%] | mortality at 4 mg/m2 [7] [%] | mortality at 4 mg/m2 [11, 15] [%] | mortality at 20 mg/m2 ([11]; surface concentration 20 mg/m^2, 30 minutes exposure) [%] | mortality at 4 mg/m2 [8, 15] [%] | nematicidal effect (formation of galls) [12] [%] | mortality at 100 ppm [13] [%] | mortality at 20 ppm [14] [%]
C[C@H](NC(=O)c1cc(OC(F)(F)F)cc(C(C)(C)C#N)c1)c1nc2cccnc2n1-c1ccc(C#N)cn1 [Example I-1] | 90 | 80 | 100 | 100 | 100 | 100 | 100 | 80 to 100 | 80 to 100 | – | – | – | – | – | – | – | – | –
C[C@H](NC(=O)c1cc(OC(F)(F)F)cc(C2(C#N)CC2)c1)c1nc2cccnc2n1-c1ccc(C#N)cn1 [Example I-3] | 90 | 90 | 100 | – | 100 | 90 | 100 | 80 to 100 | 80 to 100 | 100 | 100 | 80 to 100 | 80 to 100 | 80 to 100 | 80 to 100 | – | – | –
CNC(=O)c1ccc(-n2c(C(C)NC(=O)c3cc(C(F)(F)F)cc(C(F)(F)F)c3)nc3cccnc32)nc1 (stereo not drawn) [Example I-25] | – | – | – | – | – | – | – | – | – | – | 100 | – | – | – | – | 90 | – | –
CNC(=O)c1ccc(-n2c(C(C)NC(=O)c3cc(OC(F)(F)F)cc(OC(F)(F)F)c3)nc3cccnc32)nc1 (stereo not drawn) [Example I-27] | – | – | – | – | – | – | – | – | – | – | – | 80 to 100 | – | – | – | 90 | 100 | 100
C[C@H](NC(=O)c1cc(OC(F)(F)F)cc(S(C)(=O)=O)c1)c1nc2cc(F)cnc2n1-c1ccc(C#N)cn1 [Example I-38] | – | – | – | – | 100 | – | 100 | – | – | – | 100 | – | – | – | – | 90 | – | –
